Data as given in US9573901B2, “Crystal form of chidamide, preparation method and use thereof” (SHENZHEN CHIPSCREEN BIOSCIENCES, LTD., priority 2012, dated 2017).

Key:
Solubility = assay type: physicochemical
[1] = Stability test at high temperature, high humidity and strong light exposure; assay type: physicochemical; settings: high temperature (60° C.), high humidity (90%±5%) and strong light exposure (4500 Lx±500 Lx)
Protocol: The stability of the chidamide crystal form A and the chidamide crystal form B described herein was tested at high temperature (60° C.), high humidity (90%±5%) and strong light exposure (4500 Lx±500 Lx). […] Both the chidamide crystal form A and the chidamide crystal form B are suitable for the manufacturing of drug products and long-term storage. The chidamide crystal form A and the chidamide crystal form B described herein have excellent performance in terms of oral absorption and inhibition of cell differentiation and proliferation. Additionally, both crystal forms have low toxicity and favorable storage and treatment stability, and can be used in the preparation of a medicament for treating cell differentiation and proliferation-related diseases. Thus, the present invention provides the use of the chidamide crystal form A and the chidamide crystal form B in the preparation of a medicament for treating cell differentiation and proliferation-related diseases.

Nc1cc(F)ccc1NC(=O)c1ccc(CNC(=O)/C=C/c2cccnc2)cc1 [chidamide crystal form A, N-(2-amino-4-fluorophenyl)-4-(N-(3-pyridylacryloyl)aminomethyl)benzamide]
solubility (Solubility): favorable performance in terms of solubility
content and total impurity amount after stability test [1]: no significant change
crystal form after stability test [1]: keep the original crystal form
